Measured values: patent publication US12090163B2, “Pharmaceutical compositions” (CIPLA LIMITED, priority 2017, dated 2024)
Where a name gives a salt, the structure may show the parent alone.

Key:
Assay type in all cases: cell-based
[1] = Cytotoxicity in HCV replicon cells (CytoTox-1 cell proliferation assay); details: human, concentration decreasing cell viability by 50%
Experimental: (§1) The subgenomic HCV replicons of genotype 1a (H77 strain), 1b (Coni strain), and 2a (JFH-1 strain), which are Huh7 human hepatoma cell lines that contains an HCV replicon were used.
(§2) Briefly, the replicon cells were plated at 5,000 cells/well into 96-well plates that were dedicated for the analysis of cell numbers (cytotoxicity) or antiviral activity. On the following day, samples were diluted with assay media and added to the appropriate wells. Cells were processed 72 hours later when the cells were still sub-confluent. For the luciferase endpoint assay, HCV replicon levels were assessed as replicon-derived Luc activity. The concentration of drug that reduces cell viability was assessed by the fluorometric CytoTox-1 cell proliferation assay (Promega), (expressed as cell numbers). For the qRT-PCR/TaqMan assay, total RNA was extracted from the replicon cells using RNeasy 96 kit (Qiagen) according to the manufacturer's protocol. Real-time RTPCR/TaqMan assays was performed to measure copy numbers of the replicon RNA and cellular ribosomal RNA.

[2] = test system: HCV replicon; assay: HCV replicon antiviral evaluation assay
Experimental: as §1
The HCV replicon antiviral evaluation assay examines the effects of compounds at six serial dilutions. Human interferon alpha-2b (rIFNα-2b) and/or Sofosbuvir were included in each run as a positive control compound.
as §2

[3] = Cytotoxicity in HepG2 2.2.15 cells by MTS uptake assay; details: human, HepG2 2.2.15 cells (contain the HBV ayw1 genome), same assay plate
[4] = test system: HIV-1 isolate 89BZ_167; assay: In vitro efficacy against HIV-1 in fresh PBMCs (reverse transcriptase activity in supernatant), isolate 89BZ_167
Experimental: (§3) Fresh human PBMCs, seronegative for HIV and HBV, were isolated from screened donors (Biological Specialty Corporation, Colmar, PA). Cells were pelleted/washed 2-3 times by low speed centrifugation and re-suspension in PBS to remove contaminating platelets. The Leukophoresed blood was then diluted 1:1 with Dulbecco's Phosphate Buffered Saline (DPBS) and layered over 15 mL of Ficoll (GE Healthcare #17-1440-02) in 50 mL centrifuge tube and then centrifuged for 30 minutes at 600×g. Banded PBMCs were gently aspirated from the resulting interface and subsequently washed 2× with PBS by low speed centrifugation. After the final wash, cells were enumerated by tryptan blue exclusion and re-suspended at 1×10^6 cells/mL in RPMI 1640 supplemented with 15% Fetal Bovine Serum (FBS), and 2 mM L-glutamine, 4 μg/mL Phytohemagglutinin (PHA, Sigma). The cells were allowed to incubate for 48-72 hours at 37° C. […] Pooling (mixing) of mononuclear cells from more than one donor was used to minimize the variability observed between individual donors, which results from quantitative and qualitative differences in HIV infection and overall response to the PHA and IL-2 of primary lymphocyte populations. […]

[5] = test system: HIV-1 isolate JV-1083; assay: In vitro efficacy against HIV-1 in fresh PBMCs (reverse transcriptase activity in supernatant), isolate JV-1083
Experimental: as §3, with “C. After incubation, PBMCs were centrifuged and re-suspended in RPMI 1640 with 15% FBS, 2 mM L-glutamine, 100 U/mL penicillin, 100 μg/mL streptomycin, and approximately 100-150 U/mL recombinant human IL-2 (R&D Systems, Inc). IL-2 was included in the culture medium to maintain the cell division initiated by the PHA mitogenic stimulation. PBMCs were maintained in this medium at a concentration of 1-2×10^6 cells/mL with biweekly medium changes until used in the assay protocol. Cells were kept in culture for a maximum of two weeks before being deemed too old for use in assays and discarded. MDMs were depleted from the culture as the result of adherence to the tissue culture flask.” for “C.”

In the case of `C[C@H](Cn1cnc2c(N)ncnc21)OCP(=O)(OCOC(=O)C(C)(C)C)Oc1ccccc1` (stereo partly drawn) [((((((R)-1-(6-amino-9H-purin-9-yl)propan-2-yl)oxy)methyl)(phenoxy)phosphoryl)oxy)methyl pivalate fumarate], the CC50 at 72 h [1] is reported as 50.1 µM, the “Selectivity Index” value ([2]; CC50/EC50, HCV replicon cells) is reported as 5.98 and the “Conclusion: activity against HCV” value ([2]; HCV replicon assay) is reported as “active”. For the same compound, the EC50 ([2]; Hepatitis C virus, concentration inhibiting HCV replicon by 50%, 72 hours, genotype not given) was 8.38 µM, the CC50 at 6 days [3] was > 100 µM and the “Selectivity Index” value ([4]; HIV-1 isolate 89BZ_167, PBMCs) was 1333. The EC50 ([4]; Human immunodeficiency virus 1, PBMC, HIV-1 isolate 89BZ_167, PHA-stimulated fresh human PBMCs, six-seven days) was 0.0208 µM, the “Selectivity Index” value ([5]; HIV-1 isolate JV-1083, PBMCs) was 11241 and the EC50 ([5]; Human immunodeficiency virus 1, PBMC, HIV-1 isolate JV-1083, PHA-stimulated fresh human PBMCs, six-seven days) was 0.00246 µM. The “Conclusion: activity against HIV-1” value ([5]; against the two HIV-1 isolates (JV-1083, 89BZ_167) in PBMCs) was “potently active”.
